Measured values: patent publication US20110158980A1, “METHODS TO TREAT AND SCREEN FOR AGENTS TO TREAT OBESITY” (TRUSTEES OF TUFTS COLLEGE, priority 2008, published 2011)

System: 3T3-L1 adipocytes
Test: Metabolic flux analysis (stoichiometric model) of adipocyte intermediary metabolism
Type: cell-based
Protocol: 3T3-L1 preadipocytes were plated onto 24-well plates and expanded in preadipocyte growth medium consisting of DMEM supplemented with calf serum (10% v/v), penicillin and streptomycin. Medium was replenished every other day. Two days post-confluence, the cells were induced to differentiate using an adipogenic cocktail (1 μg/ml insulin, 0.5 mM isobutylmethylxanthine, and 1 μM dexamethasone) added to a basal medium (DMEM with 10% fetal bovine serum and penicillin/streptomycin). After 48 hrs, the first medium was replaced with a second induction medium consisting of the basal adipocyte medium supplemented with only insulin. […] This basal medium was replenished every other day during the remainder of the culture experiments.
A stoichiometric model of adipocyte central carbon metabolism was constructed as described previously (Si Y, Yoon J, Lee K. American journal of physiology 2007; 292:E1637-46). The model consisted of the major pathways of central carbon metabolism (Table 1). Intracellular fluxes were estimated by solving a constrained non-linear optimization problem with stoichiometric and thermodynamic constraints (Nolan R P, Fenley A P, Lee K. Metab Eng 2006; 8:30-45).

[1] = PA 10 mM, day 12 post-induction

O=C(O)Cc1ccccc1 [phenylacetate]
Flux RXN 65 Mitochondrial exchange: 2-Oxoglutarate in, Malate out (PA 5 mM, day 12 post-induction): 36.9 ± 7.3 mmol/g-DNA/2 days | Flux RXN 66 Mitochondrial exchange: Pi in, Malate out (PA 5 mM, day 12 post-induction): 79.9 ± 9.7 mmol/g-DNA/2 days | Flux RXN 1 Glycolysis: Glucose + ATP = Glucose 6-P + ADP [1]: 341.0 ± 14.4 mmol/g-DNA/2 days | Flux RXN 3 Glycolysis: Fructose 6-P + ATP = Glyceraldehyde 3-P + Glycerone-P + ADP [1]: 332.9 ± 13.7 mmol/g-DNA/2 days | Flux RXN 4 Glycolysis: Glycerone-P = Glyceraldehyde 3-P [1]: 309.4 ± 13.0 mmol/g-DNA/2 days | Flux RXN 5 Glycolysis: Glyceraldehyde 3-P + NAD+ + ADP + Pi = P-Enolpyruvate + ATP + H2O [1]: 650.5 ± 26.0 mmol/g-DNA/2 days | Flux RXN 6 Glycolysis: P-Enolpyruvate + ADP + H+ = Pyruvate + ATP [1]: 725.6 ± 35.8 mmol/g-DNA/2 days | Flux RXN 7 Glycolysis: Pyruvate + NADH + H+ = Lactate + NAD+ [1]: 427.8 ± 9.4 mmol/g-DNA/2 days | Flux RXN 8 Pentose phosphate pathway: Glucose 6-P + 2 NADP+ + H2O = Ribulose 5-P + CO2 + 2 NADPH + 2 H+ [1]: 24.3 ± 18.5^ mmol/g-DNA/2 days | Flux RXN 9 Pentose phosphate pathway: 3 Ribulose 5-P = 2 Fructose 6-P + Glyceraldehyde 3-P [1]: 8.1 ± 6.2^ mmol/g-DNA/2 days | Flux RXN 10 TCA cycle (mitochondria) (PDC) [1]: 233.7 ± 25.1 mmol/g-DNA/2 days | Flux RXN 12 TCA cycle (mitochondria) [1]: 132.2 ± 19.3 mmol/g-DNA/2 days | Flux RXN 13 TCA cycle (mitochondria) [1]: 158.6 ± 26.1 mmol/g-DNA/2 days | Flux RXN 14 TCA cycle (mitochondria) [1]: 169.9 ± 26.6 mmol/g-DNA/2 days | Flux RXN 15 TCA cycle (mitochondria) [1]: 170.1 ± 27.0 mmol/g-DNA/2 days | Flux RXN 16 TCA cycle (mitochondria) [1]: 110.2 ± 17.8 mmol/g-DNA/2 days | Flux RXN 17 TCA cycle: Citrate + CoA + ATP = Acetyl-CoA + Oxaloacetate + ADP + Pi [1]: 75.1 ± 16.4 mmol/g-DNA/2 days | Flux RXN 18 TCA cycle: Oxaloacetate + NADH + H+ = Malate + NAD+ [1]: 0.0 ± 0.0^ mmol/g-DNA/2 days | Flux RXN 19 TCA cycle: Malate + NADP+ = Pyruvate + CO2 + NADPH [1]: 59.9 ± 9.2 mmol/g-DNA/2 days | Flux RXN 20 TCA cycle: Citrate + NADP+ = 2-Oxoglutarate + CO2 + NADPH + H+ [1]: 26.4 ± 6.9 mmol/g-DNA/2 days | Flux RXN 21 TCA cycle: Oxaloacetate + ATP = P-Enolpyruvate + CO2 + ADP [1]: 75.1 ± 16.4 mmol/g-DNA/2 days | Flux RXN 22 Oxidative phosphorylation (NADH + 0.5 O2) [1]: 213.9 ± 89.2 mmol/g-DNA/2 days | Flux RXN 23 Oxidative phosphorylation (FADH2 + 0.5 O2) [1]: 189.1 ± 27.3 mmol/g-DNA/2 days | Flux RXN 24 Palmitate biosynthesis [1]: 9.4 ± 2.0 mmol/g-DNA/2 days | Flux RXN 25 Tripalmitoylglycerol biosynthesis: Glycerone-P + 3 Palmitate to Tripalmitoylglycerol [1]: 23.5 ± 3.0 mmol/g-DNA/2 days | Flux RXN 26 Tripalmitoylglycerol + 3 H2O = Glycerol + 3 Palmitate [1]: 20.6 ± 2.4 mmol/g-DNA/2 days | Flux RXN 27 Tripalmitoylglycerol accumulation [1]: 2.9 ± 0.6 mmol/g-DNA/2 days | Flux RXN 28 Metabolism of ketone bodies [1]: 7.8 ± 0.2 mmol/g-DNA/2 days | Flux RXN 29 Metabolism of ketone bodies [1]: 0.0 ± 0.0^ mmol/g-DNA/2 days | Flux RXN 30 Metabolism of ketone bodies (to 3-Hydroxybutyrate) [1]: 15.9 ± 0.7 mmol/g-DNA/2 days | Flux RXN 31 Amino acid metabolism: Pyruvate + NH4+ + NADPH = Alanine [1]: 0.5 ± 0.1 mmol/g-DNA/2 days | Flux RXN 32 Amino acid metabolism: Aspartate + NH4+ = Asparagine [1]: 2.9 ± 0.2 mmol/g-DNA/2 days | Flux RXN 33 Amino acid metabolism: Aspartate = Oxaloacetate + NH4+ + NADH [1]: 0.0 ± 0.0^ mmol/g-DNA/2 days | Flux RXN 34 Amino acid metabolism: Cysteine = Pyruvate + NH4+ + NADH [1]: 0.0 ± 0.0^ mmol/g-DNA/2 days | Flux RXN 35 Amino acid metabolism: Glutamate = 2-Oxoglutarate + NH4+ + NADH [1]: 0.0 ± 0.0 mmol/g-DNA/2 days | Flux RXN 36 Amino acid metabolism: Glutamate + NH4+ + ATP = Glutamine [1]: 0.0 ± 0.0 mmol/g-DNA/2 days | Flux RXN 37 Amino acid metabolism: Serine + THF = Glycine [1]: 6.2 ± 0.4^ mmol/g-DNA/2 days | Flux RXN 38 Amino acid metabolism: Histidine + THF = Glutamate + NH4+ [1]: 0.5 ± 0.1 mmol/g-DNA/2 days | Flux RXN 39 Amino acid metabolism: Isoleucine + 2 CoA [1]: 7.5 ± 0.2 mmol/g-DNA/2 days | Flux RXN 40 Amino acid metabolism: Leucine + CoA + CO2 + ATP [1]: 7.9 ± 0.2 mmol/g-DNA/2 days | Flux RXN 41 Amino acid metabolism: Lysine = 2-Oxoadipate + 2 NH4+ + 3 NADH [1]: 0.0 ± 0.0^ mmol/g-DNA/2 days | Flux RXN 42 Amino acid metabolism: 2-Oxoadipate + CoA [1]: 0.0 ± 0.0^ mmol/g-DNA/2 days | Flux RXN 43 Amino acid metabolism: Methionine + Serine + ATP + CoA + THF [1]: 0.0 ± 0.0^ mmol/g-DNA/2 days | Flux RXN 44 Amino acid metabolism: Phenylalanine + O2 + NADH = Tyrosine [1]: 0.1 ± 0.3^ mmol/g-DNA/2 days | Flux RXN 45 Amino acid metabolism: Glutamate + ATP + 2 NADPH = Proline [1]: 1.5 ± 0.1 mmol/g-DNA/2 days | Flux RXN 46 Amino acid metabolism: Serine = Pyruvate + NH4+ [1]: 0.0 ± 0.0^ mmol/g-DNA/2 days | Flux RXN 47 Amino acid metabolism: Threonine + CoA to Glycine [1]: 0.2 ± 0.2 mmol/g-DNA/2 days | Flux RXN 48 Amino acid metabolism: Tryptophan + 3 O2 + NADPH = 2-Oxoadipate + Alanine + CO2 + NH4+ [1]: 0.0 ± 0.0^ mmol/g-DNA/2 days | Flux RXN 49 Amino acid metabolism: Tyrosine + 2 O2 [1]: 0.2 ± 0.5^ mmol/g-DNA/2 days | Flux RXN 50 Amino acid metabolism: Valine + CoA [1]: 3.8 ± 0.4 mmol/g-DNA/2 days | Flux RXN 51 Plasma exchange: Palmitate [1]: 0.8 ± 0.1 mmol/g-DNA/2 days | Flux RXN 52 Plasma exchange: Acetoacetate [1]: 0.0 ± 0.1 mmol/g-DNA/2 days | Flux RXN 53 Plasma exchange: Alanine [1]: 0.5 ± 0.1 mmol/g-DNA/2 days | Flux RXN 54 Plasma exchange: Aspartate [1]: 2.9 ± 0.2 mmol/g-DNA/2 days | Flux RXN 55 Plasma exchange: Cysteine [1]: 0.0 ± 0.0^ mmol/g-DNA/2 days | Flux RXN 56 Plasma exchange: Glutamate [1]: 0.9 ± 0.1 mmol/g-DNA/2 days | Flux RXN 57 Plasma exchange: Glycine [1]: 6.4 ± 0.4 mmol/g-DNA/2 days | Flux RXN 58 Plasma exchange: Serine [1]: 6.2 ± 0.4^ mmol/g-DNA/2 days | Flux RXN 59 Plasma exchange: Tyrosine [1]: 0.1 ± 0.2^ mmol/g-DNA/2 days | Flux RXN 60 Plasma exchange: O2 (calculated oxygen uptake rate) [1]: 202.1 ±59.1 *^ mmol/g-DNA/2 days | Flux RXN 61 Plasma exchange: CO2 [1]: 582.8 ± 66.5 mmol/g-DNA/2 days | Flux RXN 62 Plasma exchange: NH4+ [1]: 16.5 ± 1.3 mmol/g-DNA/2 days | Flux RXN 63 Mitochondrial exchange: Pyruvate [1]: 357.2 ± 37.5 mmol/g-DNA/2 days | Flux RXN 64 Mitochondrial exchange: Malate in, Citrate out [1]: 101.5 ± 16.0 mmol/g-DNA/2 days | Flux RXN 65 Mitochondrial exchange: 2-Oxoglutarate in, Malate out [1]: 26.4 ± 6.9 mmol/g-DNA/2 days | Flux RXN 66 Mitochondrial exchange: Pi in, Malate out [1]: 59.9 ± 9.2 mmol/g-DNA/2 days | Decrease of flux through phosphoenolpyruvate carboxykinase (phenylacetate): 40% | Reduction of de novo fatty acid synthesis (phenylacetate): ~40% | Reduction of triglyceride accumulation (phenylacetate): 40% | Increase of flux through glycolysis (phenylacetate (5 and 10 mM), day 12 post-induction): 15˜60% | Decrease of total flux of pyruvate into the mitochondrial reactions (phenylacetate at the higher concentration (10 mM)): 29% | Decrease of flux through the PPP (phenylacetate, noted only for the 5 mM condition): 83% | Increase of fluxes through other lipogenic reactions (including esterification) (phenylacetate, higher concentration having the larger effect): 64˜75%
